Among the test systems are PC-3 prostate; OVCAR-8 ovarian; OVCAR-5 ovarian; MOLT-4 leukemia; SF-295 CNS; SNB-75 CNS; UO-31 renal; OVCAR-4 ovarian; DU-145 prostate; NCI-H226 lung; MCF7 breast; SK-MEL-5 melanoma; MALME-3M melanoma; CCRF-CEM leukemia; SK-OV-3 ovarian; M14 melanoma; SF-268 CNS; RXF 393 renal; K-562 leukemia; HCC-2998 colon.
Holding throughout (test): inhibition of tumour cell growth, NCI panel, 48 h

Structures are written as SMILES.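 All cell lines were grown in 96-well plates and treated with compound for 48 hours. Definition used: TGI = concentration required for complete inhibition of growth.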 Where only a bound is given, the exact number is not on record here.

As to `COC1=C2CC(C)CC(OC)C(OC(=O)CCCN)C(C)/C=C(\C)C(OC(N)=O)C(OC)/C=C\C=C(/C)C(=O)NC(=CC1=O)C2=O` (configuration not stated), the TGI with PC-3 prostate stood at 22.4 µM; in the test on OVCAR-8 ovarian, 21.6 µM; in the test with OVCAR-5 ovarian, 23.8 µM; with MOLT-4 leukemia it was 3.81 µM; in the test with SF-295 CNS it was 31.1 µM; with SNB-75 CNS it was 36.3 µM. For the same molecule, the TGI with UO-31 renal came to 23.1 µM; with OVCAR-4 ovarian it was 20.4 µM; in the test on DU-145 prostate, 30.5 µM; in the test with NCI-H226 lung, 33.3 µM; in the test on MCF7 breast it was 13.2 µM; in the test on SK-MEL-5 melanoma, 22.4 µM. Also, the TGI worked out at 14.9 µM in the test with MALME-3M melanoma; 3.59 µM in the test on CCRF-CEM leukemia; 35.1 µM in the test with SK-OV-3 ovarian; 17.6 µM with M14 melanoma; 24.6 µM in the test on SF-268 CNS; 25.6 µM in the test with RXF 393 renal. The TGI with K-562 leukemia and with HCC-2998 colon was 19.4 µM in each case.
On to `COc1ccc(NC/C=C/C(=C/COC(C)=O)OC(C)=O)cc1`, for which the TGI with PC-3 prostate was 5.98 µM; in the test with OVCAR-8 ovarian, 16.1 µM; with OVCAR-5 ovarian, 3.38 µM; in the test with MOLT-4 leukemia, over 100 µM; with SF-295 CNS it was 4.97 µM; in the test on SNB-75 CNS it was 20.5 µM. Besides, the TGI is 25 µM in the test with UO-31 renal; 3.26 µM in the test on OVCAR-4 ovarian; 10.2 µM in the test on DU-145 prostate; 51.7 µM in the test on NCI-H226 lung; over 100 µM in the test with MCF7 breast; 28.8 µM in the test with SK-MEL-5 melanoma. Besides, the TGI in the test with MALME-3M melanoma was 5.57 µM; in the test with CCRF-CEM leukemia, 5.12 µM; with SK-OV-3 ovarian, 28.2 µM; with M14 melanoma, 3.19 µM; with SF-268 CNS, 6.52 µM; in the test on RXF 393 renal, 3.04 µM. The TGI in the test with K-562 leukemia was determined as 3.62 µM; in the test on HCC-2998 colon, 6.84 µM.
With `CC(C)CCC[C@@H](C)[C@H]1CC[C@H]2C3=C[C@H](OS(=O)(=O)O)[C@@]4(O)C[C@@H](O)CC[C@]4(C)[C@@]3(O)CC[C@]12C`, the TGI in the test on PC-3 prostate, in the test with OVCAR-8 ovarian, with OVCAR-5 ovarian, with MOLT-4 leukemia, in the test with SF-295 CNS and in the test with UO-31 renal was over 100 µM in each case. For the same molecule, the TGI in the test with OVCAR-4 ovarian, with DU-145 prostate, with NCI-H226 lung, in the test on MCF7 breast, in the test with SK-MEL-5 melanoma and in the test with MALME-3M melanoma was over 100 µM in each case. In addition, the TGI in the test with CCRF-CEM leukemia, in the test on SK-OV-3 ovarian, in the test with M14 melanoma, in the test on SF-268 CNS, in the test on RXF 393 renal and in the test on K-562 leukemia was over 100 µM each time. This molecule also displayed a TGI in the test with HCC-2998 colon of over 100 µM.
`NC(=O)c1sc2nc3ccccc3n2c1N`: the TGI was over 100 µM in the test on PC-3 prostate; over 100 µM in the test on OVCAR-8 ovarian; over 100 µM with OVCAR-5 ovarian; over 100 µM with MOLT-4 leukemia; 50.8 µM with SF-295 CNS; 79.1 µM in the test on SNB-75 CNS. Besides, the TGI in the test with UO-31 renal, in the test with OVCAR-4 ovarian, in the test on DU-145 prostate, in the test with NCI-H226 lung, in the test with MCF7 breast and in the test on SK-MEL-5 melanoma was over 100 µM each time. Besides, the TGI in the test on MALME-3M melanoma is over 100 µM; in the test on CCRF-CEM leukemia, over 100 µM; in the test on SK-OV-3 ovarian, 89.4 µM; with M14 melanoma it was over 100 µM; in the test with SF-268 CNS it was over 100 µM; in the test on RXF 393 renal it was 74.8 µM. In the test on HCC-2998 colon, this molecule registered a TGI of over 100 µM.
On to `Cc1ccc(/C=C2\Cc3cc(C)c(C)cc3C2=O)c(C(=O)O)c1`, for which the TGI in the test on PC-3 prostate, in the test on OVCAR-8 ovarian, in the test on MOLT-4 leukemia, in the test on SF-295 CNS, with SNB-75 CNS and in the test with UO-31 renal was over 100 µM throughout. For the same molecule, the TGI in the test on DU-145 prostate is over 100 µM; with NCI-H226 lung it was 89.1 µM; in the test on MCF7 breast it was over 100 µM; in the test on SK-MEL-5 melanoma, over 100 µM; in the test on MALME-3M melanoma, over 100 µM; with CCRF-CEM leukemia it was over 100 µM. Besides, the TGI in the test with SF-268 CNS, with RXF 393 renal, in the test with K-562 leukemia and with HCC-2998 colon was over 100 µM throughout.
As for `Nc1ccc(-c2nc3ccc(F)cc3s2)cc1I`, the TGI with PC-3 prostate is over 100 µM; with OVCAR-8 ovarian, over 100 µM; in the test with OVCAR-5 ovarian, over 100 µM; with MOLT-4 leukemia, over 100 µM; in the test on SF-295 CNS, over 100 µM; in the test on SNB-75 CNS it was over 76.1 µM. Moreover, the TGI with UO-31 renal, with DU-145 prostate, in the test with NCI-H226 lung, with MCF7 breast, with SK-MEL-5 melanoma and in the test with MALME-3M melanoma was over 100 µM throughout. Also, the TGI was over 100 µM with CCRF-CEM leukemia; over 100 µM in the test on SK-OV-3 ovarian; over 100 µM in the test with M14 melanoma; over 100 µM in the test on SF-268 CNS; over 67.9 µM with RXF 393 renal; over 100 µM in the test with K-562 leukemia. Moreover, the TGI in the test on HCC-2998 colon is over 100 µM.
`COc1ccc(NC(=O)C(=O)Cc2nc3ccc(C(=O)c4ccccc4)cc3[nH]c2=O)c([N+](=O)[O-])c1`: the TGI with PC-3 prostate is over 100 µM; in the test on OVCAR-8 ovarian, 49 µM; with OVCAR-5 ovarian it was over 100 µM; in the test on MOLT-4 leukemia it was 40.1 µM; in the test with SF-295 CNS, over 100 µM; with SNB-75 CNS, 90.2 µM. The TGI is 67.6 µM in the test on UO-31 renal; over 100 µM in the test with OVCAR-4 ovarian; over 100 µM in the test on DU-145 prostate; 39.8 µM with NCI-H226 lung; over 100 µM in the test on MCF7 breast; 68.8 µM in the test on SK-MEL-5 melanoma. Moreover, the TGI is over 100 µM in the test with MALME-3M melanoma; 61.4 µM in the test on CCRF-CEM leukemia; over 100 µM with SK-OV-3 ovarian; over 100 µM in the test with M14 melanoma; over 100 µM with SF-268 CNS; over 100 µM with RXF 393 renal. The TGI with HCC-2998 colon is over 100 µM.

These data come from PubChem BioAssay (NCI).
